Data on 61 compounds can be found in ChEMBL document CHEMBL4414618, “Structure-Activity Relationships of Fish Oil Derivatives with Antiallergic Activity in Vitro and in Vivo” (J Med Chem, 2019).

For data set [1], the system named is RBL-2H3. Put plainly: Antiallergic activity in rat RBL2H3 cells assessed as inhibition of DNP-HSA-mediated degranulation by measuring decrease in beta-hexosaminidase activity preincubated for 30 mins followed by DNP-HSA stimulation and measured after 30 mins by 4-nitrophenyl 2-acetamido-2-deoxy-beta-D-glucopyranoside substrate based assay. Type of data set: functional, cell-based.

Data set [2] concerns Mus musculus. The data set can be described thus: Antiallergic activity in BALB/c mouse assessed as reduction in anti-DNP-IgE-mediated passive cutaneous anaphylaxis at 1000 mg/kg, po administered once daily for 5 days followed by anti-DNP-IgE stimulation on day 4 and subsequent DNP-HSA challenge on day 5 post 1 hr compound dose and measured after 30 mins by Evans blue dye-based spectrophotometric method relative to control. Details: scale not given: the % may be the effect or the level left. The class given is functional.

The target of data set [3] is T1, Fatty-acid amide hydrolase 1 (Homo sapiens, UniProt O00519).
T1 sequence (O00519 whole entry): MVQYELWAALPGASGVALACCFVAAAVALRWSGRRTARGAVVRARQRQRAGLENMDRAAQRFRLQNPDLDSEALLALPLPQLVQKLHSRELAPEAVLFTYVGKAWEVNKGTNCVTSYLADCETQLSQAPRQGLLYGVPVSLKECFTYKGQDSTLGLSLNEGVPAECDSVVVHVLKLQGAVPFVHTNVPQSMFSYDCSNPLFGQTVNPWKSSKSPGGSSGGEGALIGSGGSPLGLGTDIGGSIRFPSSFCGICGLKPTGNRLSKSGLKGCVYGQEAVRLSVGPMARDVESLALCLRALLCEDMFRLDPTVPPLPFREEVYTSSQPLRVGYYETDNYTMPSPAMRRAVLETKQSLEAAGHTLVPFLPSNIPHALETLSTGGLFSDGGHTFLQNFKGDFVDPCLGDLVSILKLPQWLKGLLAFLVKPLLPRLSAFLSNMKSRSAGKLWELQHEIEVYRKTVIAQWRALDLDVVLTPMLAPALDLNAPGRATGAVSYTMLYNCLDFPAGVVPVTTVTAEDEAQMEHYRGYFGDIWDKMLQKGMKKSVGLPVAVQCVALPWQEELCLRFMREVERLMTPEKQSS
Put plainly: Inhibition of human FAAH expressed in baculovirus infected Sf9 cells using N-(6-methoxypyridin-3-yl)octanamide as substrate measured for 15 mins by fluorescence based assay.

For data set [4], the target named is T1, Fatty-acid amide hydrolase 1. Put plainly: Substrate activity at human FAAH expressed in baculovirus infected Sf9 cells assessed as docosahexaenoic acid formation incubated for 60 mins by HPLC analysis. Type of data set: ADME. The following applies: sf9, 1 h.

With `CC/C=C\C/C=C\C/C=C\C/C=C\C/C=C\C/C=C\CCC(=O)NCC(C)O` (centres undefined), the IC50 in data set [1] turned out to be 27 µM. Same read-out and setting: the result for `CC/C=C\C/C=C\C/C=C\C/C=C\C/C=C\C/C=C\CCC(=O)N1CCOCC1` reads above 50 µM; that for `CC/C=C\C/C=C\C/C=C\C/C=C\C/C=C\C/C=C\CCC(=O)NCC1CCOCC1`, above 50 µM; that for `CC/C=C\C/C=C\C/C=C\C/C=C\C/C=C\C/C=C\CCC(=O)OCCO`, above 50 µM. With `CC/C=C\C/C=C\C/C=C\C/C=C\C/C=C\C/C=C\CCC(=O)NCC(=O)OC`, the IC50 in data set [1] is above 50 µM. On the same count and under the same terms, the same measure for `CCCCCCCC/C=C\CCCCCCCCCCCC(=O)NCCO`: above 50 µM. As to `CC/C=C\C/C=C\C/C=C\C/C=C\C/C=C\C/C=C\CCC(=O)O` [DOCONEXENT], in data set [1], the IC50 is above 50 µM. The Activity in data set [2] turned out to be 6%. Regarding `CC/C=C\C/C=C\C/C=C\C/C=C\C/C=C\CCCC(=O)NCCO`, the IC50 in data set [1] worked out at 24 µM. For the compound `CC/C=C\C/C=C\C/C=C\C/C=C\C/C=C\C/C=C\CCC(=O)NS(=O)(=O)c1cccs1`, the IC50 in data set [1] is above 50 µM. Consider `CCCCCCCC/C=C\CCCCCCCC(=O)NCCO` [OLEOYLETHANOLAMIDE], for which the IC50 in data set [1] is above 50 µM. In the case of `CC/C=C\C/C=C\C/C=C\C/C=C\C/C=C\C/C=C\CCC(=O)NS(=O)(=O)c1ccc(C(F)(F)F)cc1`, the IC50 in data set [1] came to 15 µM. The Activity in data set [2] is given as 19%. For `CC/C=C\C/C=C\C/C=C\C/C=C\C/C=C\C/C=C\CCC(=O)Nc1cccc(O)c1`, the IC50 in data set [1] was above 50 µM. With `CC/C=C\C/C=C\C/C=C\C/C=C\C/C=C\C/C=C\CCC(=O)NS(=O)(=O)c1ccc(O)cc1`, the IC50 in data set [1] was above 50 µM. As for `CC/C=C\C/C=C\C/C=C\C/C=C\C/C=C\C/C=C\CCC(=O)OCCOCCO`, the IC50 in data set [1] is above 50 µM. As for `CCCCC/C=C\C/C=C\CCCCCCCCCCCC(=O)O`, the IC50 in data set [1] was above 50 µM. As for `CC/C=C\C/C=C\C/C=C\C/C=C\C/C=C\C/C=C\CCC(=O)NC(C)C`, in data set [1], the IC50 is above 50 µM. Still for that read-out and setting: the result for `CC/C=C\C/C=C\C/C=C\C/C=C\C/C=C\C/C=C\CCC(=O)NS(=O)(=O)c1ccc(Cl)cc1` reads 24 µM; that for `CC/C=C\C/C=C\C/C=C\C/C=C\C/C=C\C/C=C\CCC(=O)NS(=O)(=O)C1CC1`, above 50 µM. Regarding `CC/C=C\C/C=C\C/C=C\C/C=C\C/C=C\C/C=C\CCC(=O)OC(CO)CO`, the IC50 in data set [1] is above 50 µM. Regarding `CC/C=C\C/C=C\C/C=C\C/C=C\C/C=C\C/C=C\CCC(=O)NC(CO)CO`, the figures for the IC50 in data set [3] and in data set [1] were above 50 µM and 16 µM, respectively. Also, in data set [2], the Activity was found to be 17%. Moreover, the Drug metabolism result in data set [4] is on record as “Metabolite_Notdetected”. On to `CCCCC/C=C\C/C=C\CCCCCCCC(=O)O` [LINOLEIC ACID], for which the concentration for half-maximal inhibition (IC50) in data set [1] was above 50 µM. As for `CC/C=C\C/C=C\C/C=C\C/C=C\C/C=C\C/C=C\CCC(=O)NC(C)(C)C`, the IC50 in data set [1] was above 50 µM. As for `CC/C=C\C/C=C\C/C=C\C/C=C\C/C=C\C/C=C\CCC(=O)NS(C)(=O)=O`, in data set [1], the IC50 was above 50 µM. Same read-out and setting: the same measure for `CCCCCCCC/C=C\CCCCCCCC(=O)O` [OLEIC ACID]: above 50 µM.

Turning to `CC/C=C\C/C=C\C/C=C\C/C=C\C/C=C\C/C=C\CCC(=O)N(CCO)CCO`, in data set [1], the IC50 is above 50 µM.

As to `CC/C=C\C/C=C\C/C=C\C/C=C\C/C=C\C/C=C\CCC(=O)NS(=O)(=O)Cc1ccccc1`, the IC50 in data set [1] is 22 µM. The Activity in data set [2] is given as 2%.

As for `CC/C=C\C/C=C\C/C=C\C/C=C\C/C=C\C/C=C\CCC(=O)NCC(=O)O`, the IC50 in data set [3] stood at 8.6 µM; in data set [1] it was 24 µM. Also, the Activity in data set [2] worked out at 0%. The Drug metabolism result in data set [4] is listed as “Metabolite_Detected”. Regarding `CC/C=C\C/C=C\C/C=C\C/C=C\C/C=C\C/C=C\CCC(=O)NCCOC`, the IC50 in data set [1] is above 50 µM. In the case of `CC/C=C\C/C=C\C/C=C\CCCCCCCC(=O)NCCO`, the IC50 in data set [1] was 29 µM. In addition, the Activity in data set [2] stood at 29%. The like results for `CC/C=C\C/C=C\C/C=C\C/C=C\C/C=C\C/C=C\CCC(=O)NS(=O)(=O)c1ccc([N+](=O)[O-])cc1` were, in that order, 15 µM and 49%. On to `CC/C=C\C/C=C\C/C=C\CCCCCCCC(=O)O` [LINOLENIC ACID], for which the half-maximal inhibitory concentration (IC50) in data set [1] is above 50 µM. Same read-out and setting: the result for `CC/C=C\C/C=C\C/C=C\C/C=C\C/C=C\C/C=C\CCC(=O)NCCc1ccc(O)c(O)c1` reads above 50 µM; that for `CC/C=C\C/C=C\C/C=C\C/C=C\C/C=C\C/C=C\CCC(=O)N1CCN(S(C)(=O)=O)CC1`, above 50 µM. For `CC/C=C\C/C=C\C/C=C\C/C=C\C/C=C\C/C=C\CCC(=O)NS(=O)(=O)c1ccc(C)cc1`, the 50% inhibitory concentration (IC50) in data set [1] came out at 27 µM. Still for that read-out and setting: the result for `CC/C=C\C/C=C\C/C=C\C/C=C\C/C=C\CCCC(=O)O` [ICOSAPENT] reads above 50 µM; that for `CC/C=C\C/C=C\C/C=C\C/C=C\C/C=C\C/C=C\CCC(=O)NCCC`, above 50 µM. In the case of `CC/C=C\C/C=C\C/C=C\C/C=C\C/C=C\C/C=C\CCC(=O)NC(C)CO` (centres undefined), the IC50 was above 50 µM in data set [3] and 24 µM in data set [1]. Also, the Activity in data set [2] is 7%. Besides, the Drug metabolism entry in data set [4] is “Metabolite_Notdetected”. As for `CC/C=C\C/C=C\C/C=C\C/C=C\C/C=C\C/C=C\CCC(=O)NS(=O)(=O)c1ccc(C(=O)OC)cc1`, the IC50 in data set [1] was 30 µM. For `CC/C=C\C/C=C\C/C=C\C/C=C\C/C=C\C/C=C\CCC(=O)NC1CCOCC1`, the IC50 in data set [1] is above 50 µM.

On to `CC/C=C\C/C=C\C/C=C\C/C=C\C/C=C\C/C=C\CCC(=O)NCCCO`, for which the values for the IC50 in data set [3] and in data set [1] were above 50 µM and 18 µM, respectively. For the same compound, in data set [2], the Activity is 0%. In addition, the Drug metabolism entry in data set [4] was “Metabolite_Detected”. As for `CC/C=C\C/C=C\C/C=C\C/C=C\C/C=C\C/C=C\CCC(=O)NS(=O)(=O)c1ccc(F)cc1`, the IC50 in data set [1] amounted to 24 µM. Further, in data set [2], the Activity amounted to 0%. On to `CC/C=C\C/C=C\C/C=C\C/C=C\C/C=C\C/C=C\CCC(=O)NCC(O)CO` (centres undefined), for which the IC50 in data set [3] is above 50 µM; in data set [1], 17 µM. Besides, in data set [2], the Activity stood at 23%. In addition, the Drug metabolism result in data set [4] is “Metabolite_Detected”. Turning to `CCCCC/C=C\C/C=C\C/C=C\C/C=C\CCCC(=O)O` [ARACHIDONIC ACID], the IC50 in data set [1] was above 50 µM. Turning to `CC/C=C\C/C=C\C/C=C\C/C=C\C/C=C\C/C=C\CCC(=O)NS(=O)(=O)C(F)(F)C(F)(F)F`, the IC50 in data set [1] came to 21 µM. For the compound `CC/C=C\C/C=C\C/C=C\C/C=C\C/C=C\C/C=C\CCC(=O)NS(=O)(=O)C(C)(C)C`, the results for the IC50 in data set [3] and in data set [1] were above 50 µM and 17 µM, respectively. In addition, in data set [2], the Activity amounted to 0%. For the same compound, in data set [4], the Drug metabolism entry is given as “Metabolite_Notdetected”.

For the compound `CC/C=C\C/C=C\C/C=C\C/C=C\C/C=C\C/C=C\CCC(=O)N1CCN(C)CC1`, the IC50 in data set [1] was above 50 µM.

As for `CCCCCCCC/C=C\CCCCCCCCCCCC(=O)O` [ERUCIC ACID], the IC50 in data set [1] was above 50 µM. For the compound `CC/C=C\C/C=C\C/C=C\C/C=C\C/C=C\C/C=C\CCC(=O)Nc1ccccc1O`, the IC50 in data set [1] was above 50 µM. As to `CCCCC/C=C\C/C=C\CCCCCCCC(=O)NCCO` [LINOLEOYLETHANOLAMIDE], the IC50 in data set [1] is 48 µM. In the case of `CCCCC/C=C\C/C=C\C/C=C\CCCCCCC(=O)O` [DIHOMO-GAMMA-LINOLENIC ACID], the half-maximal inhibitory concentration (IC50) in data set [1] was above 50 µM. Still for that read-out and setting: the same measure for `CC/C=C\C/C=C\C/C=C\C/C=C\C/C=C\C/C=C\CCC(=O)NCCN`: above 50 µM. Consider `CCCCC/C=C\C/C=C\CCCCCCCCCCCC(=O)NCCO`, for which, in data set [1], the IC50 was above 50 µM. Take `CC/C=C\C/C=C\C/C=C\C/C=C\C/C=C\C/C=C\CCC(=O)NS(=O)(=O)c1ccc(OC(F)(F)F)cc1`: the 50% inhibitory concentration (IC50) in data set [1] amounted to 19 µM. Moreover, in data set [2], the Activity amounted to 11%.

Take `CC/C=C\C/C=C\C/C=C\C/C=C\C/C=C\C/C=C\CCC(=O)NCCOCCO`: the IC50 was above 50 µM in data set [3] and 18 µM in data set [1]. Moreover, the Activity in data set [2] is listed as 11%. In addition, the Drug metabolism result in data set [4] is listed as “Metabolite_Detected”.

For `CCCCC/C=C\C/C=C\C/C=C\CCCCCCC(=O)NCCO`, the IC50 in data set [1] was above 50 µM. In the case of `CCCCC/C=C\C/C=C\C/C=C\C/C=C\CCCC(=O)NCCO` [ANANDAMIDE], the IC50 in data set [1] was above 50 µM. Still for that read-out and setting: the result for `CC/C=C\C/C=C\C/C=C\C/C=C\C/C=C\C/C=C\CCC(=O)NS(=O)(=O)C(F)(F)F` reads 47 µM; that for `CC/C=C\C/C=C\C/C=C\C/C=C\C/C=C\C/C=C\CCC(=O)NS(=O)(=O)c1ccc(C(=O)O)cc1`, above 50 µM. Same read-out and setting: the result for `CC/C=C\C/C=C\C/C=C\C/C=C\C/C=C\C/C=C\CCC(=O)N(C)CCOC` reads above 50 µM; that for `CC/C=C\C/C=C\C/C=C\C/C=C\C/C=C\C/C=C\CCC(=O)NS(=O)(=O)c1ccccc1`, above 50 µM; that for `CC/C=C\C/C=C\C/C=C\C/C=C\C/C=C\C/C=C\CCC(=O)N(C)CCO`, above 50 µM.

A word on the IC50: it is the concentration that gives 50% inhibition.
